We go through 15 molecules from patent US9868715B2 (THE BOARD OF REGENTS OF THE UNIVERSITY OF TEXAS SYSTEMS, priority 2014, dated 2018).

The target in series [1] is T1, human CBS (cystathionine-β-synthase) (Homo sapiens, UniProt P35520).
T1 construct: GST (N); made in house; host or cells: E. coli BL21(DE3) Codon Plus
T1 sequence (P35520 1-551): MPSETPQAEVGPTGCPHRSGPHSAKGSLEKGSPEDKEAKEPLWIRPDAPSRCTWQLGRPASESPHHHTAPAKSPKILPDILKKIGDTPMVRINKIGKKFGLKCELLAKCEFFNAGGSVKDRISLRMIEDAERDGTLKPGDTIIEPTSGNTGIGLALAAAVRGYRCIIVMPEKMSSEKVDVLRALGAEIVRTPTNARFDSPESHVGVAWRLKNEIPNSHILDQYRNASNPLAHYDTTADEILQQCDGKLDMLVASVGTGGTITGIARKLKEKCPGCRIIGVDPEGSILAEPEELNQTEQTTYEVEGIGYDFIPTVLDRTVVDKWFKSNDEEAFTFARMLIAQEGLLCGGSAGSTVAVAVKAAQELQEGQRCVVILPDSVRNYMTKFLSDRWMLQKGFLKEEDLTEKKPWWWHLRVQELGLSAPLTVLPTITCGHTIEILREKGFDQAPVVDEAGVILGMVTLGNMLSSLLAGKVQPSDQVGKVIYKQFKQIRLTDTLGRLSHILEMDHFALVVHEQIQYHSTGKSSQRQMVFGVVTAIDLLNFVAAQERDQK
The series can be described thus: H2S production by recombinant CBS. It counts as biochemical. Particulars: 100 μM compound; H2S production as % of control (100%). On the procedure:
Recombinant human CBS protein expression and purification. The expression and purification of human CBS was performed as described previously (Asimakopoulou et al. 2013, Br J Pharmacol. 169(4):922-32). Briefly, E. Coli BL21(DE3) Codon Plus cells (Stratagene, La Jolla, Calif., USA) containing the expression vector pGEX-Kg/GST-CBS were grown at 37° C. and 180 rpm in LuriaBertani (LB) broth medium containing 100 μg/ml ampicillin to an absorption of 0.6-0.8 at 600 nm. Protein expression was induced by addition of 0.1 mM IPTG (isopropyl-b-D-thiogalactopyranoside) and cells were further incubated at 30° C. overnight. The bacteria were harvested and sonicated in lysis buffer PBS (140 mM NaCl, 2.7 mM KCl, 10 mM Na2HPO4, 1.8 mM KH2PO4, pH 7.8) containing a protease inhibitors cocktail (Sigma). The protein lysate was loaded onto a GSTrap FF 1 ml affinity column (Amersham Biosciences) and the GST-CBS recombinant protein was eluted with the elution buffer (50 mM Tris-HCl, 10 mM reduced glutathione, pH 8.0) and then dialyzed and concentrated in 10 mM sodium phosphate buffer (pH 8.2) and DTT (1 mM).
Measurement of H2S production by recombinant CBS. The measurement of H2S production by recombinant CBS enzyme was performed as described (Asimakopoulou et al. 2013, Br J Pharmacol. 169(4):922-32). Briefly, each test consisted of a 100 μl reaction mixture in 50 mM sodium phosphate buffer pH 8.2 containing 1 μg of the purified human CBS enzyme, 0.01 mM pyridoxal-5′-phosphate (PLP), 10 mM L-cysteine and 0.5 mM homocysteine. […] The reaction was initiated by transferring the Eppendorf tubes from ice to a 37° C. shaking water bath. After 60 minutes of incubation at 37° C., the reaction was terminated by adding 1% ZnAc followed by 10% trichloroacetic acid. Subsequently, N,N-dimethylphenylendiamine sulfate (20 mM in 7.2 M HCl) and FeCl3 (30 mM in 1.2 M HCl) were added and the optical absorbance of the solutions was measured at 650 nm.

Series [2] relates to transformed PSC (human pancreatic stellate cells). The series can be described thus: PSC proliferation, AlamarBlue Cell Viability Assay. It counts as cell-based. The settings on record: for inhibition at 20 µM / inhibition at 5 µM / inhibition at 10 µM: Homo sapiens, read-out: Inhibitory Effect (%) on PSC proliferation; for inhibition at 20 µM / Inhibitory Effect (%) on PSC proliferation / inhibition at 5 µM / inhibition at 10 µM: mean of at least three independent experiments, NE = No effect; for Antiproliferative effect on PSC, result in words: transformed PSC, AlamarBlue; for Inhibitory Effect (%) on PSC proliferation / inhibition at 10 µM: 10 μM. On the procedure:
The calculated lipophilicity (cLogP) and topological polar surface area (tPSA) values of synthesized analogues are listed in Table 1. […] AlamarBlue is a non-toxic reagent that is converted to a highly fluorescent end product by viable cells.
Under an IRB-approved tissue protocol, discarded human resected pancreatic tissue (500 mm^3) was attained fresh from the operating room at the University of Texas Medical Branch. The tissue was minced and plated on a collagen-coated flask (15 μg/mL, Invitrogen) with DMEM (VWR; Radnor, Pa.) supplemented with penicillin 200 U/mL, streptomycin 200 μg/mL, amphotericin B 0.25 μg/mL and gentimicin 50 μg/mL (Invitrogen, Carlsbad Calif.), 10% fetal bovine serum (Lonza, Walkersville, Md.), 1% insulin-transferrin, selenium-ethanolamine (Gibco, Grand Island, N.Y.), and 1% non-essential amino acids (Sigma-Aldrich, St. Louis, Mo.). The human PSC were isolated by the outgrowth method.^41-43 The purity of PSC culture was confirmed by immunohistochemical staining for vimentin, α-smooth muscle actin, glial fibrillar acidic protein, or Oil red O staining. Primary PSC were transformed and immortalized for use in experiments using lentiviral vectors containing SV40 Large T antigen and human telomerase (plasmid #12245 and 12246; Addgene, Cambridge, Mass.). Cultures were maintained in DMEM with 10% FBS, at 37° C. in a humidified 95% O2/5% CO2 atmosphere.
Cell proliferation assay. Transformed PSC (3×10^3) were plated in 96-well plates, in sextuplicate. […] AlamarBlue reagent (10% sample volume, DAL1025) was added to each well per Invitrogen's protocol. Fluorescence was recorded using excitation/emission wavelengths of 544/590 nm and the SpectraMax M2 Microplate Reader (Molecular Devices, Sunnyvale Calif.).
Statistical analysis. Dose-response curves were generated by plotting fluorescence or absorbance versus log (compound concentration). A best-fit curve was created using nonlinear regression, and the IC50 or EC50 determined from the graph (GraphPad Prism 5; GraphPad Software Inc., La Jolla, Calif.). To analyze continuos variables, unpaired student t-tests and one-way ANOVA with Tukey-Kramer multiple comparisons post-test (GraphPad Prism 5). Significance was set at p<0.05.

As for `COc1cc(OC)c2c(=O)cc(-c3ccc(O)cc3)oc2c1` [Compound 6, 2-(4-Hydroxy-phenyl)-5,7-dimethoxy-chromen-4-one], the activity at 100 µM in series [1] came to 130%.

As a reminder, the melting point is the temperature, or range, at which the solid turns liquid. With `COc1cc(OC)c2c(=O)cc(-c3ccc(OCCBr)cc3)oc2c1` [Compound 7, 2-(4-(2-Bromoethoxy)phenyl)-5,7-dimethoxy-chromen-4-one], the melting point is 202 to 203 °C. Moreover, in series [2], the inhibition at 20 µM is 20% and the “Antiproliferative effect on PSC, result in words” value was “slightly increased antiproliferative effects in comparison with 6”. The activity at 100 µM in series [1] worked out at 121%.

Take `COc1cc(OC)c2c(=O)cc(-c3ccc(OCCF)cc3)oc2c1` [Compound 8, 2-(4-(2-Fluoroethoxy)phenyl)-5,7-dimethoxy-chromen-4-one]: the melting point lay in the range of 187 to 188 °C. In series [2], the inhibition at 20 µM worked out at 21% and the “Antiproliferative effect on PSC, result in words” value is reported as “slightly increased antiproliferative effects in comparison with 6”. Besides, the activity at 100 µM in series [1] turned out to be 127%.

On to `COc1cc(OC)c2c(=O)cc(-c3ccc(OC4CCN(C)CC4)cc3)oc2c1` [Compound 9, 5,7-Dimethoxy-2-(4-(1-methylpiperidin-4-yloxy)phenyl)-chromen-4-one], for which the melting point was 143 to 144 °C. In series [2], the “Inhibitory Effect (%) on PSC proliferation” value (“Inhibitory Effect (%)” for short) stood at 49%, the inhibition at 5 µM amounted to 28% and the inhibition at 10 µM came out at 49%. In series [1], the activity at 100 µM is 122%.

`COc1cc(OC)c2c(=O)cc(-c3ccc(OCCN(C)C)cc3)oc2c1` [Compound 10, 2-(4-(2-Dimethylaminoethoxy)phenyl)-5,7-dimethoxy-chromen-4-one] came in with a melting point of 153 to 154 °C. Further, in series [2], the “Inhibitory Effect (%)” value amounted to 51%, the inhibition at 5 µM worked out at 19%, the inhibition at 10 µM was 51% and the inhibition at 20 µM came out at 65%. The activity at 100 µM in series [1] worked out at 125%.

`COc1cc(OC)c2c(=O)cc(-c3ccc(OCCN4CCOCC4)cc3)oc2c1` [Compound 11, 5,7-Dimethoxy-2-(4-(2-morpholin-4-yl-ethoxy)phenyl)-chromen-4-one] had a melting point of 149 to 150 °C. In addition, the activity at 100 µM in series [1] was 117%.

For the molecule `COc1cc(OC)c2c(=O)cc(-c3ccc(OCCCN(C)C)cc3)oc2c1` [Compound 12, 2-(4-(3-Dimethylaminopropoxy)phenyl)-5,7-dimethoxy-chromen-4-one], the melting point lay within 105 to 106 °C. In series [2], the “Inhibitory Effect (%)” value stood at 59%, the inhibition at 5 µM was 36%, the inhibition at 10 µM turned out to be 59% and the inhibition at 20 µM stood at 86%. The activity at 100 µM in series [1] came to 83.9%.

The molecule `COc1cc(OC)c2c(=O)cc(-c3ccc(OCCN4CCCC4=O)cc3)oc2c1` [Compound 13, 1-(2-(4-(5,7-Dimethoxy-4-oxo-4H-chromen-2-yl)phenoxy)ethyl)-pyrrolidin-2-one] registered a melting point of 115 to 116 °C. Besides, in series [2], the inhibition at 5 µM amounted to 7%, the inhibition at 10 µM is 14% and the inhibition at 20 µM worked out at 33%. Moreover, the activity at 100 µM in series [1] amounted to 108%.

`COc1cc(OC)c2c(=O)cc(-c3ccc(OCCN4CCN(C)CC4)cc3)oc2c1` [Compound 15, 5,7-Dimethoxy-2-(4-(2-(4-methylpiperazin-1-yl)ethoxy)phenyl)-chromen-4-one] came in with a melting point of 144 to 145 °C. Besides, in series [2], the inhibition at 5 µM came to 22%, the inhibition at 10 µM was determined as 42% and the inhibition at 20 µM stood at 67%. In addition, in series [1], the activity at 100 µM was 124%.

`CCN(CC)CCOc1ccc(-c2cc(=O)c3c(OC)cc(OC)cc3o2)cc1` [Compound 17, 2-(4-(2-Diethylaminoethoxy)-phenyl)-5,7-dimethoxy-chromen-4-one] gave a melting point of 116 to 117 °C. Also, in series [2], the inhibition at 5 µM was 33%, the inhibition at 10 µM was found to be 60% and the inhibition at 20 µM was 72%. In addition, the activity at 100 µM in series [1] was 106%.

In turn, `COC(=O)[C@@H]1CCCN1CCOc1ccc(-c2cc(=O)c3c(OC)cc(OC)cc3o2)cc1` [Compound 18, 1-(2-(4-(5,7-Dimethoxy-4-oxo-4H-chromen-2-yl)phenoxy)ethyl)-pyrrolidine-2-carboxylic acid methyl ester] gave a melting point of 121 to 122 °C. For the same molecule, in series [2], the inhibition at 5 µM turned out to be 22%, the inhibition at 10 µM came out at 37% and the inhibition at 20 µM was determined as 67%. The activity at 100 µM in series [1] was found to be 116%.

As to `COc1cc(OC)c2c(=O)cc(-c3ccc(OC4CCNCC4)cc3)oc2c1` [Compound 19, 5,7-Dimethoxy-2-(4-(piperidin-4-yloxy)-phenyl)-chromen-4-one], the melting point lay in the range of 205 to 206 °C. Moreover, the inhibition at 10 µM in series [2] was 21%. The activity at 100 µM in series [1] came out at 115%.

Molecule `COc1cc(OC)c2c(=O)cc(-c3ccc(OCCN)cc3)oc2c1` [Compound 20, 2-(4-(2-Aminoethoxy)-phenyl)-5,7-dimethoxy-chromen-4-one] registered a melting point of 165 to 166 °C. In series [2], the inhibition at 5 µM worked out at 6%, the inhibition at 10 µM came out at 35% and the inhibition at 20 µM amounted to 70%. Also, the activity at 100 µM in series [1] was 119%.

Regarding `COc1cc(OC)c2c(=O)cc(-c3ccc(OCCCN)cc3)oc2c1` [Compound 21, 2-(4-(3-Aminopropoxy)-phenyl)-5,7-dimethoxy-chromen-4-one], the melting point lay in the range of 170 to 171 °C. Also, in series [2], the inhibition at 5 µM turned out to be 22% and the inhibition at 10 µM came out at 39%. The activity at 100 µM in series [1] was found to be 116%.

As for `COc1cc(OC)c2c(=O)cc(-c3ccc(Br)cc3)oc2c1` [Compound 31, 2-(4-Bromophenyl)-5,7-dimethoxy-chromen-4-one], in series [2], the inhibition at 5 µM worked out at 12%, the inhibition at 10 µM is 10% and the inhibition at 20 µM turned out to be 22%. The activity at 100 µM in series [1] was determined as 69.4%.
